The source of these data is ChEMBL document CHEMBL4190300, “Discovery and Synthesis of Caracolamide A, an Ion Channel Modulating Dichlorovinylidene Containing Phenethylamide from a Panamanian Marine Cyanobacterium cf. Symploca Species” (J Nat Prod, 2017).

Usually IC50 stands for the point on the concentration scale where inhibition reaches its midpoint. A higher IC50 goes with weaker potency.

The species entered for one assay is Mus musculus. Nature of the assay: Inhibition of spontaneous calcium oscillations in Swiss Webster mouse neocortical neurons at 0.01 nM to 1000 nM measured for 2 mins by Fluo-3 AM dye based FLIPR assay.
The subject of another assay is NCI-H460. Nature of the assay: Cytotoxicity against human NCI-H460 cells after 48 hrs by MTT assay. Type of assay: functional, cell-based. The conditions noted are these: NCI-H460, 48 h. (In general: Tetrazolium assays rely on reduction of a dye to a coloured formazan, in cell work by metabolically active cells.)

The structures appear in SMILES notation. Activity calls are given as the source filed them. No cut-off for these calls is given here. Where only a bound is given, the exact number is not on record here.

Turning to `NCCc1ccccc1`, in the assay filed under Mus musculus, the inhibition entry is “Active”. As for `O=C(CCCCCC=C(Cl)Cl)NCCc1ccccc1`, the inhibition result in the assay listed under Mus musculus was “Active”. The same compound yielded an IC50 in the assay on NCI-H460 of more than 10 µM. On to `C=CC[C@@H](C[C@@H](C[C@@H](C[C@@H](C[C@@H](C[C@@H](C[C@@H](C[C@@H](C[C@@H](C[C@@H](CCCCC)OC)OC)OC)OC)OC)OC)OC)OC)OC)OC`, for which the IC50 with NCI-H460 is more than 10 µM.
